Assay results taken from patent US12383534B2, “Methods for treating cancer” (REGENTS OF THE UNIVERSITY OF MINNESOTA, priority 2021, dated 2025).

What was measured:
[1] = system: CIC-DUX4 target genes ETV1, 4, and 5; assay: RT-qPCR for CIC-DUX4 target genes in NCC-CDS-X1 cells; type: cell-based, human; settings: NCC-CDS-X1, 24 hours, highest concentration
Experimental: RNA was extracted using an RNA extraction kit (Zymo) and cDNA was made using 0.5 μg total RNA with oligo-dT primer and Verso cDNA Synthesis Kit (Thermo Scientific) following the manufacturer's instructions. qPCRs were performed by using Premix Ex Taq (Probe qPCR, Takara) or SYBR-green. Gene expression levels were normalized to that of GAPDH and analyzed with 7500 System Software using the ACT method (Applied Biosystems). RNA-seq library preparation was done with 500 ng total RNA from NCC-CDS-X1 cells treated for 4 or 24 hours with iP300w (0.3 μM) using the Swift Rapid RNA Library Kit (SwiftBioscience). 36 base paired-end sequencing was performed on an Illumina NextSeq instrument at the University of Minnesota Genomics Center.
Next, the effect of the stereoisomers on the CIC-DUX4 target genes in cells cultured with the compounds for 24 hours was analyzed.

[2] = system: NCC-CDS-X1 cells (CIC-DUX4 sarcoma cell line); assay: Cell viability (ATP) assay in NCC-CDS-X1 cells; type: cell-based, human
Experimental: Basal media were purchased from HyClone, fetal bovine serum (FBS) was from PeakSerum (Ps-FB3, lot 293Q16), and Glutamax (Glu) and Penicillin/Streptomycin (P/S) were from GIBCO. NCC-CDS-X1 (CIC-DUX4 sarcoma cell line, a generous gift from Tadashi Kondo) cell line was cultured in RPMI with 10% FBS, Glu and P/S, Kitra-SRS (CIC-DUX4 sarcoma cell line, a generous gift from Hidetatsu Otani), 3T3, 293T and C2C12 cell lines were cultured in DMEM/10% FBS/Glu/P/S. The immortalized human myoblast LHCN-M2 cell line was cultured in proliferation medium: F10 supplemented with 20% FBS, 2-mercaptoethanol 1× (GIBCO), 10^−9 M dexamethasone (Sigma), 10 ng/mL bFGF (Peprotech), and Glu/P/S. All cells were cultured at 37° C. in a 5% CO2 atmosphere.
Cell lines were plated in a 96 well dish (1×10^5 cells/well), and the following day were treated with iP300w or its stereoisomers. ATP assays were performed using CellTiter-Glo® Luminescent Cell Viability Assay (Promega) according to the manufacturer's instructions. Luminescence was analyzed on POLARstar Optima Microplate Reader (BMG Labtech, Offenburg, Germany).
The activity of the various iP300w stereoisomers against NCC-CDS-X1 cells was evaluated. Cultures were treated with serial dilutions, ranging from 0.003 μM to 3.0 μM, for up to 96 hours. In cells treated with iP300w, a significant decrease in cell viability was evident at the lowest concentration (0.003 μM) at 48 and 96 hours (FIG. 3A). The effect was dose- and time-dependent. […] (FIG. 2B and FIG. 9).

p300 and CBP = settings: in vitro and in vivo; cited from earlier work
[3] = system: wide spectrum of cancer cell lines; settings: cited from earlier work
CDS cell lines = settings: screens of FDA-approved anticancer molecules; cited from earlier work
Kitra-SRS cells (IGF-1R) = settings: cited from earlier work

## CNC(=O)Nc1ccc2c(c1)CC[C@@]21OC(=O)N(CC(=O)N(Cc2ccc(F)cc2)[C@@H](C)C(F)(F)F)C1=O [A-485, reference compound]
[1]
  effect on ETV4 expression at the highest concentration: notable effect on ETV4
[2]; NCC-CDS-X1, IC50 at 48 and 96 hours
  fold less potent than iP300w (from IC50 values): approximately 200 fold
[2]; NCC-CDS-X1, up to 96 hours, 0.003 to 3.0 μM
  activity on cell viability: also showed activity, but at higher concentrations
p300 and CBP
  inhibition of acetylation by p300 and CBP: inhibit acetylation by p300 and CBP both in vitro and in vivo
[3]; high MITF-expressing melanoma cell lines and NUT midline carcinoma
  efficacy against melanoma and NUT midline carcinoma: effective against high MITF-expressing melanoma cell lines
[3]; more prominently in those of hematopoietic origin
  effect on proliferation of cancer cell lines: suppress proliferation of a wide spectrum of cancer cell lines

## CC(C)C[C@H](NC(=O)[C@H](Cc1ccccc1)NC(=O)c1cnccn1)B(O)O [bortezomib]
CDS cell lines
  effectiveness in vitro on CDS cell lines: some degree of effectiveness in vitro

## C[C@@H](Oc1cc(-c2cnn(C3CCNCC3)c2)cnc1N)c1c(Cl)ccc(F)c1Cl [crizotinib]
CDS cell lines
  effectiveness in vitro on CDS cell lines: some degree of effectiveness in vitro

## C[C@]1(O)C[C@@H](c2nc(-c3ccc4ccc(-c5ccccc5)nc4c3)c3c(N)nccn32)C1 [linsitinib]
Kitra-SRS cells (IGF-1R)
  effect on cell proliferation: reduced cell proliferation
